US7601746B2 (Shionogi & Co., Ltd., priority 2003, dated 2009)

Target: T1, human TPO receptor (hTPOR) (Homo sapiens, UniProt P40238)
T1 construct: expressed in transfected cells; host or cells: BaF-B03 (murine IL-3 dependent cell line)
T1 sequence (P40238 26-635): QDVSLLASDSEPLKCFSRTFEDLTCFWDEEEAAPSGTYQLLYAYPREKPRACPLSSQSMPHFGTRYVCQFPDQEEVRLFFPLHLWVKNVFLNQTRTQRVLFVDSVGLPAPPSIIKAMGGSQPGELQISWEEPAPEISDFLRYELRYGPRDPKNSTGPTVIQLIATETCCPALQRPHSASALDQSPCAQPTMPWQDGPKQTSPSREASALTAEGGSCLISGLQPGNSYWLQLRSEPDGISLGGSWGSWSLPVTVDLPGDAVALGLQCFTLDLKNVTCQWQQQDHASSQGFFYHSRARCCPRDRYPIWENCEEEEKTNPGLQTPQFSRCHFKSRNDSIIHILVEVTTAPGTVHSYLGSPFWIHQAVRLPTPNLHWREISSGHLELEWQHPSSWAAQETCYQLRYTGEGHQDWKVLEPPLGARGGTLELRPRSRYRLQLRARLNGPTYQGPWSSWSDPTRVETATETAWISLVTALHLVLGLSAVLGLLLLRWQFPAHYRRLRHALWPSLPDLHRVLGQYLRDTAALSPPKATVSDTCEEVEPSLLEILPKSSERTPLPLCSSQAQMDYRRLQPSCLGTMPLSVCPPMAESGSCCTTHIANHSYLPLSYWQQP
Test: Thrombopoietic activity: proliferation of TPO dependent BaF/hTPOR cells (WST-1, absorbance at 450 nm)
Format: cell-based
Details: 20 h + 4 h WST-1, ED50 = half concentration of the concentration showing the maximum thrombopoietic activity, Table 1
Procedure, shortened: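 Proliferation read-out: WST-1 absorbance at 450 nm after 20 h compound exposure plus 4 h reagent, using IL-3-deprived BaF/hTPOR cells (5×10^4 per well) dependent on human TPO receptor signalling. ED50 defined as half the concentration producing maximal activity.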

SMILES | EC50 [nM]
CCCCCCCCCC(OC)c1cccc(-c2csc(NC(=O)c3cc(Cl)c(C=C(C)C(=O)O)c(Cl)c3)n2)c1F (stereo not drawn) [Compound B61, 3-(2,6-dichloro-4-{4-[2-fluoro-3-(1-methyloxydecyl)phenyl]thiazol-2-ylcarbamoyl}phenyl)-2-methylacrylic acid] | 0.76
CCOCCCCOC(CC)c1cccc(-c2csc(NC(=O)c3cc(Cl)c(C=C(C)C(=O)O)c(Cl)c3)n2)c1F (stereo not drawn) [Compound B65, 3-[2,6-dichloro-4-(4-{3-[1-(4-ethyloxybutyloxy)propyl]-2-fluorophenyl]thiazol-2-ylcarbamoyl}phenyl)-2-methylacrylic acid] | 1.04
CCCCCOC(CC)c1cccc(-c2csc(NC(=O)c3cc(Cl)c(C=C(C)C(=O)O)c(Cl)c3)n2)c1F (stereo not drawn) [Compound B67, 3-[2,6-dichloro-4-(4-{3-[1-n-pentyloxypropyl]-2-fluorophenyl}thiazol-2-ylcarbamoyl)phenyl]-2-methylacrylic acid] | 0.48
CCCCCCC(OC)c1cccc(-c2csc(NC(=O)c3cc(Cl)c(C=C(C)C(=O)O)c(Cl)c3)n2)c1F (stereo not drawn) [Compound B68, 3-(2,6-dichloro-4-{4-[2-fluoro-3-(1-methyloxyheptyl)phenyl]thiazol-2-ylcarbamoyl}phenyl)-2-methylacrylic acid] | 0.82
CCCCCOC(CCCC)c1cccc(-c2csc(NC(=O)c3cc(Cl)c(C=C(C)C(=O)O)c(Cl)c3)n2)c1F (stereo not drawn) [Compound B70, 3-(2,6-dichloro-4-{4-[2-fluoro-3-(1-n-pentyloxypentyl)phenyl]thiazol-2-ylcarbamoyl}phenyl)-2-methylacrylic acid] | 0.43
CCCCCCCCC(OC)c1cccc(-c2csc(NC(=O)c3cc(Cl)c(C=C(C)C(=O)O)c(Cl)c3)n2)c1F (stereo not drawn) [Compound B72, 3-(2,6-dichloro-4-{4-[2-fluoro-3-(1-methyloxynonyl)phenyl]thiazol-2-ylcarbamoyl}phenyl)-2-methylacrylic acid] | 0.78
CCCCCC(CCc1cccc(-c2csc(NC(=O)c3cc(Cl)c(C=C(C)C(=O)O)c(Cl)c3)n2)c1F)OC (stereo not drawn) [Compound B73, 3-(2,6-dichloro-4-{4-[2-fluoro-3-(3-methyloxyoctyl)phenyl]thiazol-2-ylcarbamoyl}phenyl)-2-methylacrylic acid] | 1.35

Further compounds by falling EC50, results first:

EC50 [nM] | SMILES
1.19 | COC(c1cccc(-c2csc(NC(=O)c3cc(Cl)c(C=C(C)C(=O)O)c(Cl)c3)n2)c1F)C(C)(C)C (stereo not drawn) [Compound B64, 3-(2,6-dichloro-4-{4-[2-fluoro-3-(1-methyloxy-2,2-dimethylpropyl)phenyl]thiazol-2-ylcarbamoyl}phenyl)-2-methylacrylic acid]
1 | CCCCC(OCC)c1cccc(-c2csc(NC(=O)c3cc(Cl)c(C=C(C)C(=O)O)c(Cl)c3)n2)c1F (stereo not drawn) [Compound B71, 3-(2,6-dichloro-4-{4-[3-(1-ethyloxypentyl)-2-fluorophenyl]thiazol-2-ylcarbamoyl}phenyl)-2-methylacrylic acid]
0.91 | CC(=Cc1c(Cl)cc(C(=O)Nc2nc(-c3cccc(CCCOCC(C)(C)C)c3F)cs2)cc1Cl)C(=O)O [Compound B66, 3-[2,6-dichloro-4-(4-{3-[3-(2,2-dimethylpropyloxy)propyl]-2-fluorophenyl]thiazol-2-ylcarbamoyl}phenyl)-2-methylacrylic acid]
0.78 | CCCCCCCC(OC)c1cccc(-c2csc(NC(=O)c3cc(Cl)c(C=C(C)C(=O)O)c(Cl)c3)n2)c1F (stereo not drawn) [Compound B69, 3-(2,6-dichloro-4-{4-[2-fluoro-3-(1-methyloxyoctyl)phenyl]thiazol-2-ylcarbamoyl}phenyl)-2-methylacrylic acid]
0.76 | CCOC(CC(C)(C)C)c1cccc(-c2csc(NC(=O)c3cc(Cl)c(C=C(C)C(=O)O)c(Cl)c3)n2)c1F (stereo not drawn) [Compound B62, 3-(2,6-dichloro-4-{4-[2-fluoro-3-(1-ethyloxy-3,3-dimethylbutyl)phenyl]thiazol-2-ylcarbamoyl}phenyl)-2-methylacrylic acid]
